Values quoted from earlier work, collected in patent US20130195797A1, “HIGH POTENCY FORMULATIONS OF VX-950” (VERTEX PHARMACEUTICALS INCORPORATED, priority 2012, published 2013).

Tested on: HCV
Conditions: clinical trials

CCC[C@H](NC(=O)[C@@H]1[C@H]2CCC[C@H]2CN1C(=O)[C@@H](NC(=O)[C@@H](NC(=O)c1cnccn1)C1CCCCC1)C(C)(C)C)C(=O)C(=O)NC1CC1 [VX-950]
antiviral activity / effective therapy against HCV: has shown antiviral activity
